Source: paper PMC10649961, “Novel Mitochondria-Targeted Amphiphilic Aminophosphonium Salts and Lipids Nanoparticles: Synthesis, Antitumor Activity and Toxicity” (Nanomaterials, 2023)
Where two headings read alike, the source gives them in different places.

Columns and labels:
M-HeLa [1] = assay: cells; settings: Homo sapiens, 48 h, read-out: Cytotoxic Effects (IC50)
T98G [2] = tested on: T98G
SK-OV-3 [3] = assay: cells; settings: Homo sapiens, SK-OV-3, 48 h, read-out: Cytotoxic Effects (IC50)
MCF-7 [4] = settings: calculated relative to the cell line Chang liver (b)
A549 [5] = settings: reference normal cell line not marked at the place (ns cells)
PANC-1 [6] = assay: cells; settings: Homo sapiens, PANC-1, 48 h, read-out: Cytotoxic Effects (IC50)
SK-OV-3 [7] = tested on: SK-OV-3
[8] = tested on: Enterococcus faecalis ATCC 29212; assay: Antimicrobial activity, serial microdilutions, Ef; type: cell-based; parameters: key to Minimum Inhibitory Concentration (MIC) / Minimum bactericidal and fungicidal concentrations (MBC, MFC): – means non-active; settings: for MIC: ATCC29212, read-out: Minimum Inhibitory Concentration (MIC)
How it was run: (§1)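 Compounds were serially diluted in broth: Mueller-Hinton for the bacterial strains, Sabouraud for the yeast. Each determination was done in triplicate.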

[9] = tested on: Bacillus cereus ATCC 10702 NCTC 8035; assay: Antimicrobial activity, serial microdilutions, Bc; type: cell-based; parameters: key to Minimum bactericidal and fungicidal concentrations (MBC, MFC): – means non-active; settings: for MIC / Minimum bactericidal and fungicidal concentrations (MBC, MFC): Bc; for MIC: read-out: Minimum Inhibitory Concentration (MIC)
How it was run: (§2)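 Activity was read from serial microdilutions, with bacteria grown in Mueller-Hinton broth and Candida in Sabouraud broth. The MRSA-1 strain came from a patient with chronic tonsillitis.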

DU-145 [10] = tested on: DU-145
HuTu 80 [11] = assay: cells; settings: Homo sapiens, HuTu80, 48 h, read-out: Cytotoxic Effects (IC50)
[12] = tested on: Escherichia coli ATCC 25922; assay: Antimicrobial activity, serial microdilutions, Ec; type: cell-based; parameters: key to Minimum Inhibitory Concentration (MIC) / Minimum bactericidal and fungicidal concentrations (MBC, MFC): – means non-active; settings: for MBC: ATCC25922, read-out: Minimum bactericidal and fungicidal concentrations (MBC, MFC)
How it was run: as §2

MRSA-1 = assay: Antimicrobial activity, serial microdilutions, MRSA-1; type: cell-based, S. aureus; settings: Staphylococcus aureus; for MIC: read-out: Minimum Inhibitory Concentration (MIC); for MBC: read-out: Minimum bactericidal and fungicidal concentrations (MBC, MFC)
How it was run: as §2

PANC-1 [13] = settings: calculated relative to the cell line Chang liver (b)
[14] = tested on: Pseudomonas aeruginosa ATCC 9027; assay: Antimicrobial activity, serial microdilutions, Pa; type: cell-based; parameters: key to Minimum Inhibitory Concentration (MIC) / Minimum bactericidal and fungicidal concentrations (MBC, MFC): – means non-active; settings: for MIC: ATCC9027, read-out: Minimum Inhibitory Concentration (MIC)
How it was run: as §2

HuTu 80 [15] = settings: calculated relative to the cell line Chang liver (b)
MRSA-2 = assay: Antimicrobial activity, serial microdilutions, MRSA-2; type: cell-based, S. aureus; settings: Staphylococcus aureus; for MIC: read-out: Minimum Inhibitory Concentration (MIC); for MBC: read-out: Minimum bactericidal and fungicidal concentrations (MBC, MFC)
How it was run: as §1

[16] = tested on: Candida albicans ATCC 10231; assay: Antimicrobial activity, serial microdilutions, Ca; type: cell-based; parameters: key to Minimum Inhibitory Concentration (MIC) / Minimum bactericidal and fungicidal concentrations (MBC, MFC): – means non-active; settings: for Minimum Inhibitory Concentration (MIC) / Minimum bactericidal and fungicidal concentrations (MBC, MFC): Ca
How it was run: as §2

Hep G2 [17] = settings: calculated relative to the cell line Chang liver (b)
[18] = tested on: Staphylococcus aureus ATCC 6538 P FDA 209P; assay: Antimicrobial activity, serial microdilutions, Sa; type: cell-based; settings: Staphylococcus aureus; for MIC: read-out: Minimum Inhibitory Concentration (MIC); for MBC: read-out: Minimum bactericidal and fungicidal concentrations (MBC, MFC)
How it was run: as §1

T98G [19] = assay: cells; settings: Homo sapiens, 48 h, read-out: Cytotoxic Effects (IC50)
A549 [20] = assay: cells; settings: Homo sapiens, A549, 48 h, read-out: Cytotoxic Effects (IC50)
DU-145 [21] = assay: cells; settings: Homo sapiens, DU-145, 48 h, read-out: Cytotoxic Effects (IC50), DU-145, MTT assay, 48 h
MCF-7 [22] = assay: cells; settings: Homo sapiens, MCF7, 48 h, read-out: Cytotoxic Effects (IC50)
M-HeLa [23] = settings: calculated relative to the cell line Chang liver (b)
Hep G2 [24] = assay: cells; settings: Homo sapiens, HepG2, 48 h, read-out: Cytotoxic Effects (IC50)
[25] = reference normal cell line not marked at the place (ns cells)
[26] = calculated relative to the cell line Chang liver (b)

Row | SMILES | IC50 (M-HeLa [1]) | IC50 (SK-OV-3 [3]) | selectivity index (SI) (MCF-7 [4]) | selectivity index (SI) (A549 [5]) | IC50 (PANC-1 [6]) | MIC ([8]; Enterococcus faecalis) | MIC ([9]; Bacillus cereus) | IC50 (HuTu 80 [11]) | MIC (MRSA-1) | MBC (MRSA-1) | selectivity index (SI) (PANC-1 [13]) | selectivity index (SI) (HuTu 80 [15]) | MIC (MRSA-2) | MBC (MRSA-2) | selectivity index (SI) (Hep G2 [17]) | MIC [18] | MBC [18] | IC50 (T98G [19]) | IC50 (A549 [20]) | IC50 (DU-145 [21]) | further results
1 | CCCCCCCC[P+](N(CC)CC)(N(CC)CC)N(CC)CC [4b, Tris(diethylamino)(octyl)phosphonium iodide] | 1.8 ± 0.1 µM | 26.3 ± 1.8 µM | 1.4 | ns (ns—no selectivity) | 2.3 ± 0.1 µM | 250 ± 19 µM | 7.8 ± 0.7 µM | 3.2 ± 0.2 µM | 15.6 ± 0.3 µM | 500 ± 47 µM | 1.7 | 1.3 | 15.6 ± 1.2 µM | 125 ± 9 µM | 1.4 | 15.6 ± 1.3 µM | 31.3 ± 2.3 µM | 5.9 ± 0.4 µM | 15.4 ± 1.2 µM | 4.2 ± 0.3 µM | selectivity index (SI) (T98G [2]; [25]): ns (ns—no selectivity); selectivity index (SI) (SK-OV-3 [7]; [25]): ns (ns—no selectivity); Minimum bactericidal and fungicidal concentrations (MBC, MFC) [8]: –; selectivity index (SI) (PC3; [25]): ns (ns—no selectivity); Minimum bactericidal and fungicidal concentrations (MBC, MFC) [9]: –; selectivity index (SI) (DU-145 [10]; [25]): ns (ns—no selectivity); Minimum Inhibitory Concentration (MIC) [12]: –; Minimum bactericidal and fungicidal concentrations (MBC, MFC) [12]: –; Minimum Inhibitory Concentration (MIC) [14]: –; Minimum bactericidal and fungicidal concentrations (MBC, MFC) [14]: –; Minimum Inhibitory Concentration (MIC) [16]: –; Minimum bactericidal and fungicidal concentrations (MBC, MFC) [16]: –; IC50 (MCF-7 [22]): 2.9 ± 0.2 µM; selectivity index (SI) (M-HeLa [23]): 2.2; IC50 (Hep G2 [24]): 2.9 ± 0.2 µM
2 | CCCCCCCCCC[P+](N(CC)CC)(N(CC)CC)N(CC)CC [4d, Decyltris(diethylamino)phosphonium iodide] | 1.7 ± 0.1 µM | 10 ± 0.9 µM | 5.7 | ns (ns—no selectivity) | 1.6 ± 0.1 µM | 15.6 ± 1.3 µM | 0.9 ± 0.07 µM | 2.8 ± 0.2 µM | 0.9 ± 0.07 µM | 62.5 ± 5.4 µM | 7.5 | 4.3 | 1.9 ± 0.1 µM | 250 ± 18 µM | 5.2 | 1.9 ± 0.1 µM | 31.3 ± 2.5 µM | 1.8 ± 0.2 µM | 18.4 ± 1.3 µM | 1.2 ± 0.1 µM | selectivity index (SI) (T98G [2]; [26]): 6.7; selectivity index (SI) (SK-OV-3 [7]; [26]): 1.2; MBC ([8]; Enterococcus faecalis, ATCC29212, read-out: Minimum bactericidal and fungicidal concentrations (MBC, MFC)): > 500 µM; selectivity index (SI) (PC3; [26]): 1.6; MBC ([9]; Bacillus cereus, read-out: Minimum bactericidal and fungicidal concentrations (MBC, MFC)): 250 ± 22 µM; selectivity index (SI) (DU-145 [10]; [26]): 10; MIC ([12]; Escherichia coli, ATCC25922, read-out: Minimum Inhibitory Concentration (MIC)): 125 ± 9 µM; MBC ([12]; Escherichia coli): 250 ± 19 µM; MIC ([14]; Pseudomonas aeruginosa): 500 ± 47 µM; MBC ([14]; Pseudomonas aeruginosa, ATCC9027, read-out: Minimum bactericidal and fungicidal concentrations (MBC, MFC)): 500 ± 48 µM; MIC ([16]; Candida albicans, ATCC10231, read-out: Minimum Inhibitory Concentration (MIC)): 125 ± 11 µM; MBC ([16]; Candida albicans, ATCC10231, read-out: Minimum bactericidal and fungicidal concentrations (MBC, MFC)): 250 ± 18 µM; IC50 (MCF-7 [22]): 2.1 ± 0.2 µM; selectivity index (SI) (M-HeLa [23]): 7.1; IC50 (Hep G2 [24]): 2.3 ± 0.1 µM
3 | CCCCCCCC[P+](c1ccccc1)(N(CC)CC)N(CC)CC [5b, Bis(diethylamino)(octyl)(phenyl)phosphonium iodide] | 1.8 ± 0.1 µM | 25.6 ± 1.8 µM | 1.5 | ns (ns—no selectivity) | 1.2 ± 0.1 µM | 125 ± 11 µM | 7.8 ± 0.6 µM | 4 ± 0.3 µM | 15.6 ± 1.2 µM | 500 ± 48 µM | 3.3 | 1.0 | 15.6 ± 1.2 µM | 250 ± 20 µM | 1.4 | 7.8 ± 0.6 µM | 250 ± 20 µM | 4.3 ± 0.3 µM | 20 ± 1.6 µM | 2 ± 0.1 µM | selectivity index (SI) (T98G [2]; [26]): 1.0; selectivity index (SI) (SK-OV-3 [7]; [25]): ns (ns—no selectivity); Minimum bactericidal and fungicidal concentrations (MBC, MFC) [8]: –; selectivity index (SI) (PC3; [25]): ns (ns—no selectivity); Minimum bactericidal and fungicidal concentrations (MBC, MFC) [9]: –; selectivity index (SI) (DU-145 [10]; [26]): 2.0; Minimum Inhibitory Concentration (MIC) [12]: –; MBC ([12]; Escherichia coli): 500 ± 49 µM; Minimum bactericidal and fungicidal concentrations (MBC, MFC) [14]: –; MIC ([14]; Pseudomonas aeruginosa): 500 ± 46 µM; Minimum Inhibitory Concentration (MIC) [16]: –; Minimum bactericidal and fungicidal concentrations (MBC, MFC) [16]: –; IC50 (MCF-7 [22]): 2.6 ± 0.2 µM; selectivity index (SI) (M-HeLa [23]): 2.2; IC50 (Hep G2 [24]): 2.9 ± 0.3 µM
